Test system: Cercospora sojina
Assay: Activity against Cercospora sojina, microtiter plate test
Type: cell-based
Conditions: single active, absorption at 405 nm on day 7 after inoculation, 18° C.
Protocol: The expected efficacies of active compound combinations were determined using Colby's formula (Colby, S. R. “Calculating synergistic and antagonistic responses of herbicide combinations”, Weeds, 15, pp. 20-22, 1967) and compared with the observed efficacies. E=x+y−x·y/100 Colby's formula • E expected efficacy, expressed in % of the untreated control, when using the mixture of the active compounds A and B at the concentrations a and b • x efficacy, expressed in % of the untreated control, when using the active compound A at the concentration a • y efficacy, expressed in % of the untreated control, when using the active compound B at the concentration b A solution containing 10 mg a.i. per 1 ml dimethyl sulfoxide is prepared. The stock solution is pipetted onto a microtiter plate (MTP) and diluted with water. In a second step a spore suspension of Cercospora sojina (containing a biomalt-based aqueous nutrient medium) was given to the stated active compound concentration. The plates were placed in a water vapor-saturated chamber at temperatures of 18° C. Using an absorption photometer, the MTPs were measured at 405 nm on day 7 after the inoculation. The measured parameters were compared to the growth of the active compound-free control variant and the fungus- and active compound-free blank value to determine the relative growth in % of the pathogens in the individual active compounds.

SMILES | Observed activity (% infection) (concentration 0.063 ppm) | Observed activity (% infection) (concentration 0.016 ppm)
Fc1ccc([C@]2(Cn3cncn3)O[C@H]2c2ccccc2Cl)cc1 (racemic) [epoxiconazole, reference compound] | 0% | –
Cn1cc(C(=O)Nc2ccccc2[C@@H]2C[C@H]2C2CC2)c(C(F)F)n1 [Compound (Ia), N-(trans-2-bicycloprop-2-ylphenyl)-3-difluoromethyl-1-methyl-1H-pyrazole-4-carboxamide] | 31% | 0%

From US20100099559A1, “Method for protecting soybeans from being infected by fungi” (BASF SE, priority 2007, published 2010)
